For assay [1], the system named is Z-138 cells. The assay is described as follows: Z-138 Proliferation Assay (Cell Titer Glo, 5 days). Particulars: Homo sapiens, 120 h. Type of assay: cell-based. From the text:
Z-138 Proliferation Assay
Z-138 suspension cells were purchased from ATCC (American Type Culture Collection, Manassas, Va.). RPMI/Glutamax medium, penicillin-streptomycin, heat inactivated fetal bovine serum were purchased from Life Technologies, Grand Island, N.Y., USA. V-bottom polypropylene 384-well plates were purchased from Greiner Bio-One, Monroe, N.C., USA. Cell culture 384-well white opaque plates were purchased from Perkin Elmer, Waltham, Mass., USA. Cell-Titer Glo® was purchased from Promega Corporation, Madison, Wis., USA. SpectraMax M5 plate reader was purchased from Molecular Devices LLC, Sunnyvale, Calif., USA.
Z-138 suspension cells were maintained in growth medium (RPMI 1640 supplemented with 10% v/v heat inactivated fetal bovine serum and cultured at 37° C. under 5% CO2 Under assay conditions, cells were incubated in assay medium (RPMI 1640 supplemented with 10% v/v heat inactivated fetal bovine serum and 100 units/mL penicillin-streptomycin) at 37° C. under 5% CO2.
For the assessment of the effect of compounds on the proliferation of the Z-138 cell line, exponentially growing cells were plated in 384-well white opaque plates at a density of 10,000 cells/ml in a final volume of 50 μl of assay medium. A compound source plate was prepared by performing triplicate nine-point 3-fold serial dilutions in DMSO, beginning at 10 mM (final top concentration of compound in the assay was 20 μM and the DMSO was 0.2%). A 100 nL aliquot from the compound stock plate was added to its respective well in the cell plate. […] After addition of compounds, assay plates were incubated for 5 days at 37° C., 5% CO2, relative humidity>90%.
Cell viability was measured by quantitation of ATP present in the cell cultures, adding 35 μl of Cell Titer Glo® reagent to the cell plates. Luminescence was read in the SpectraMax M5 microplate reader. The concentration of compound inhibiting cell viability by 50% was determined using a 4-parametric fit of the normalized dose response curves.

The target in assay [2] is T1, PRMT5/MEP50 (Homo sapiens, UniProt O14744).
T1 construct: Flag-PRMT5; 6His-MEP50
T1 sequence (O14744 with tags, fused parts or gaps): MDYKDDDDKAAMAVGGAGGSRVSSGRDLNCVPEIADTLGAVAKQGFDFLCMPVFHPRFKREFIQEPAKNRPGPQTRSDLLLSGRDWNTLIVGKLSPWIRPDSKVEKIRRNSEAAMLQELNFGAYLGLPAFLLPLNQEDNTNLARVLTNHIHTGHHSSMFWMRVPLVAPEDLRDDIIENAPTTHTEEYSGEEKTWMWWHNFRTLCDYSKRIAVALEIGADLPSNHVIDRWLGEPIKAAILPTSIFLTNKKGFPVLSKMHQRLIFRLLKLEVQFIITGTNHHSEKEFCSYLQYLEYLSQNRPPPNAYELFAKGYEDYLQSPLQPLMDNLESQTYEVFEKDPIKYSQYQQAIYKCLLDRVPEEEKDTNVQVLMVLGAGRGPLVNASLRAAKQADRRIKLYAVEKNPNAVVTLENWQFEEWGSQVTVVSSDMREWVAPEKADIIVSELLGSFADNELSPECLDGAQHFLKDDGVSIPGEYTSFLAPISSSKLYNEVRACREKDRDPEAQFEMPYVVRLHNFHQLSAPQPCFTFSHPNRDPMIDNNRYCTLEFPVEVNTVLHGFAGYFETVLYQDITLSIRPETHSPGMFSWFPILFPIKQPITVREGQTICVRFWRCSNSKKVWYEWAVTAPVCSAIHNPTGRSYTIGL
T1 sequence (Q9BQA1 with tags, fused parts or gaps partner): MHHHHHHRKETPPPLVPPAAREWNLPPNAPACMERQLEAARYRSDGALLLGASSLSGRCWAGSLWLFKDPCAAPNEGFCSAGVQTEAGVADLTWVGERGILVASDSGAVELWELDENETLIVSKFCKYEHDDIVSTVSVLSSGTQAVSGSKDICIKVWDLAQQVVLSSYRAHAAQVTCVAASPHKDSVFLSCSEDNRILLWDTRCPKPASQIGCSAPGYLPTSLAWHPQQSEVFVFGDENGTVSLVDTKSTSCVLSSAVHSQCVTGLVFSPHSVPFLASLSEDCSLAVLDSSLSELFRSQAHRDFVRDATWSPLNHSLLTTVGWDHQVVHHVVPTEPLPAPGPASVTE
The assay is described as follows: PRMT5 Biochemical Assay (PRMT5/MEP50 enzyme assay on peptide substrate, 3H-SAM Flashplate). Put shortly: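 FLAG-PRMT5/His-MEP50 from Sf9 cells (4 nM) preincubated 30 min at 25 °C with compound in 20 mM Bicine pH 7.6, 1 mM TCEP, 1% DMSO. Reaction started with 75 nM 3H-SAM on 40 nM biotinylated H4 1-15 peptide, stopped with cold SAM. Bound 3H-peptide counted on streptavidin Flashplates, normalised to DMSO and 100 uM SAH controls.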

`Cn1cnc2ccc(-c3ccnc(NC[C@H](O)CN4CCc5ccccc5C4)c3)cc21` [Compound 275] came in with an EC50 in assay [1] of 1000 to 10000 nM.
Take `COC(=O)c1cncc(-c2cccc(OCC(O)CN3CCc4ccccc4C3)c2)c1` (centres unmarked) [Compound 180]: the IC50 in assay [2] lay within 1000 to 10000 nM. Further, the half-maximal effective concentration (EC50) in assay [1] was greater than 20000 nM.
As for `Cn1cnc2ccc(-c3cccc(OC[C@@H](O)CN4CCc5ccccc5C4)c3)cc21` [Compound 173], the EC50 in assay [1] is 1000 to 10000 nM.
With `COC(=O)c1cccc(-c2cccc(OCC(O)CN3CCc4ccccc4C3)c2)c1` (centres unmarked) [Compound 135], the IC50 in assay [2] lay within 101 to 1000 nM. The compound also gave an EC50 in assay [1] greater than 20000 nM.
Taken in the same sequence, the figures for `CN1CCN(c2ccc(-c3cccc(OCC(O)CN4CCc5ccccc5C4)c3)cn2)CC1` (centres unmarked) [Compound 149] were 101 to 1000 nM and 1000 to 10000 nM.
With `Cn1cnc2ccc(-c3cccc(OC[C@H](O)CN4CCc5ccccc5C4)c3)cc21` [Compound 174], the EC50 in assay [1] was 1000 to 10000 nM.
Regarding `OC(COc1cccc(-c2ccc3c(c2)OCO3)c1)CN1CCc2ccccc2C1` (centres unmarked) [Compound 59, 1-(3-(benzo[d][1,3]dioxol-5-yl)phenoxy)-3-(3,4-dihydroisoquinolin-2(1H)-yl)propan-2-ol], the IC50 in assay [2] lay within 101 to 1000 nM. This compound came in with an EC50 in assay [1] of 10000 to 40000 nM.
Take `Cn1cnc2ccc(-c3cccc(OCC(O)CN4CCc5ccccc5C4)c3)nc21` (centres unmarked) [Compound 189, 1-(3,4-dihydroisoquinolin-2(1H)-yl)-3-(3-(3-methyl-3H-imidazo[4,5-b]pyridin-5-yl)phenoxy)propan-2-ol]: in assay [1], the EC50 lay within 101 to 1000 nM.
Still for that read-out and setting: as for `Cn1cnc2ccc(-c3ccnc(NCC(O)CN4CCc5ccccc5C4)c3)cc21` (centres unmarked) [Compound 118, 1-(3,4-Dihydroisoquinolin-2(1H)-yl)-3-((4-(1-methyl-1H-benzo[d]imidazol-6-yl)pyridin-2-yl)amino)propan-2-ol], the figure is 1000 to 10000 nM.
On to `CNC(=O)Cn1cnc2ccc(-c3cccc(OCC(O)CN4CCc5ccccc5C4)c3)cc21` (centres unmarked) [Compound 262], for which the IC50 in assay [2] is 101 to 1000 nM. This compound came in with an EC50 in assay [1] of 1000 to 10000 nM.
The matching figures for `OC(COc1cccc(-c2ccc3ncn(C4CNC4)c3c2)c1)CN1CCc2ccccc2C1` (centres unmarked) [Compound 208, 1-(3-(1-(azetidin-3-yl)-1H-benzo[d]imidazol-6-yl)phenoxy)-3-(3,4-dihydroisoquinolin-2(1H)-yl)propan-2-ol]: 101 to 1000 nM and 1000 to 10000 nM.
The matching figures for `OC(COc1cccc(-c2ccc3nn[nH]c3c2)c1)CN1CCc2ccccc2C1` (centres unmarked) [Compound 84, 1-(3-(1H-benzo[d][1,2,3]triazol-6-yl)phenoxy)-3-(3,4-dihydroisoquinolin-2(1H)-yl)propan-2-ol]: 101 to 1000 nM and 1000 to 10000 nM.
In assay [1], `Cn1cnc2ccc(-c3cccc(OCC(O)CN4CCc5ccccc5C4)c3)cc21` (centres unmarked) [Compound 45, 1-(3,4-dihydroisoquinolin-2(1H)-yl)-3-(3-(1-methyl-1H-benzo[d]imidazol-6-yl)phenoxy)propan-2-ol] returned an EC50 of 1000 to 10000 nM.
Still for that read-out and setting: as for `Cn1cnc2ccc(-c3ccnc(NC[C@@H](O)CN4CCc5ccccc5C4)c3)cc21` [Compound 276], the figure is 1000 to 10000 nM.
Consider `O=C(Cn1cnc2ccc(-c3cccc(OCC(O)CN4CCc5ccccc5C4)c3)cc21)N1CCOCC1` (centres unmarked) [Compound 264], for which, in assay [2], the half-inhibitory concentration (IC50) was 101 to 1000 nM. Also, the EC50 in assay [1] lay within 1000 to 10000 nM.
Take `OC(COc1cccc2ccc(N3CCOCC3)nc12)CN1CCc2ccccc2C1` (centres unmarked) [Compound 15]: the IC50 in assay [2] lay in the range of 1000 to 10000 nM.
Still for that read-out and setting: to `O=C(Nc1cccc(OCC(O)CN2CCc3ccccc3C2)c1)c1cccnn1` (centres unmarked) [Compound 164] belongs 1000 to 10000 nM; to `N#Cc1ccccc1-c1cccc(OCC(O)CN2CCc3ccccc3C2)c1` (centres unmarked) [Compound 93], 101 to 1000 nM.
Consider `Cn1cnc2ccc(-c3cc(NCC(O)CN4CCc5ccccc5C4)n[nH]3)cc21` (centres unmarked) [Compound 271, 1-(3,4-dihydroisoquinolin-2(1H)-yl)-3-((5-(1-methyl-1H-benzo[d]imidazol-6-yl)-1H-pyrazol-3-yl)amino)propan-2-ol], for which the IC50 in assay [2] was 101 to 1000 nM.
Consider `CC(C)(C)OC(=O)N1CC(OCC(O)CN2CCc3ccccc3C2)C1` (centres unmarked) [Compound 290], for which, in assay [2], the IC50 is 1000 to 10000 nM.
The same measure, in the same setting: to `OC(CCc1cccc(CNC2CCCC2)c1)CN1CCc2ccccc2C1` (centres unmarked) [Compound 36] belongs 10000 to 40000 nM.
Still for that read-out and setting: as for `Cc1cccc2c1CN(CC(O)COc1cccc(-c3ccc4ncn(C)c4c3)c1)CC2` (centres unmarked) [Compound 192], the figure is 1000 to 10000 nM; as for `CC(C)Oc1ccc(F)c(-c2cccc(OCC(O)CN3CCc4ccccc4C3)c2)c1` (centres unmarked) [Compound 201], 101 to 1000 nM; as for `OC(COc1cccc(-c2cccc(Oc3ccccc3)c2)c1)CN1CCc2ccccc2C1` (centres unmarked) [Compound 55], 1000 to 10000 nM.
Same read-out and setting: as for `COc1cccc(COCC(O)CN2CCc3ccccc3C2)c1` (centres unmarked) [Compound 288], the figure is 1000 to 10000 nM; as for `Cn1cnc2ccc(-c3nccc(NCC(O)CN4CCc5ccccc5C4)n3)cc21` (centres unmarked) [Compound 120, 1-(3,4-dihydroisoquinolin-2(1H)-yl)-3-((2-(1-methyl-1H-benzo[d]imidazol-6-yl)pyrimidin-4-yl)amino)propan-2-ol], 1000 to 10000 nM.
For the compound `Cc1cn(C)c2cc(-c3cccc(OCC(O)CN4CCc5ccccc5C4)c3)ccc12` (centres unmarked) [Compound 187], in assay [2], the IC50 is 101 to 1000 nM.
The same measure, in the same setting: to `O=C(c1cccc(-c2cccc(OCC(O)CN3CCc4ccccc4C3)c2)c1)N1CCCC1` (centres unmarked) [Compound 185] belongs 101 to 1000 nM.
Regarding `Oc1ccc(-c2cccc(OCC(O)CN3CCc4ccccc4C3)c2)cc1` (centres unmarked) [Compound 96], the IC50 in assay [2] is 1000 to 10000 nM.
`Cc1ncc2ccc(-c3cccc(OCC(O)CN4CCc5ccccc5C4)c3)cn12` (centres unmarked) [Compound 266, 1-(3,4-dihydroisoquinolin-2(1H)-yl)-3-(3-(3-methylimidazo[1,5-a]pyridin-6-yl)phenoxy)propan-2-ol] showed an EC50 in assay [1] of 1000 to 10000 nM.
For the compound `COc1ccc2c(c1)CN(CC(O)COc1cccc(-c3ccc4ncn(C)c4c3)c1)CC2` (centres unmarked) [Compound 177], in assay [2], the IC50 was in the range of 10000 to 40000 nM.
The same measure, in the same setting: as for `OC(COc1cccc(-c2ccc3[nH]ncc3c2)c1)CN1CCc2ccccc2C1` (centres unmarked) [Compound 107], the figure is 101 to 1000 nM.
Regarding `OC(COc1cccc(C2CCCCC2)c1)CN1CCc2ccccc2C1` (centres unmarked) [Compound 52], the IC50 in assay [2] lay within 1000 to 10000 nM.
